Source: patent US10070645B2, “N-cycloalkyl-N-{[2-(1-substitutedcycloalkyl)phenyl]methylene}-(thio)carboxamide derivatives” (BAYER CROPSCIENCE AKTIENGESELLSCHAFT, priority 2013, dated 2018)

Experiments:
Phakopsora pachyrhizi = test: In vivo preventive test on Phakopsora pachyrhizi (soybean rust)
Experimental: In Vivo Preventive Test on Phakopsora pachyrhizi (Soybean Rust)
Solvent: 24.5 parts by weight of acetone • 24.5 parts by weight of N,N-dimethylacetamide
Emulsifier: 1 part by weight of alkylaryl polyglycol ether
To produce a suitable preparation of active compound, 1 part by weight of active compound is mixed with the stated amounts of solvent and emulsifier, and the concentrate is diluted with water to the desired concentration.
To test for preventive activity, young plants are sprayed with the preparation of active compound at the stated rate of application. After the spray coating has dried on, the plants are inoculated with an aqueous spore suspension of the causal agent of soybean rust (Phakopsora pachyrhizi) and stay for 24 h without light in an incubation cabinet at approximately 24° C. and a relative atmospheric humidity of 95%.
The plants remain in the incubation cabinet at approximately 24° C. and a relative atmospheric humidity of approximately 80% and a day/night interval of 12 h.
The test is evaluated 7 days after the inoculation. 0% means an efficacy which corresponds to that of the untreated control, while an efficacy of 100% means that no disease is observed.

Uromyces appendiculatus = test: In vivo preventive test on Uromyces appendiculatus (bean rust); details: for protection: dose of 100 and 10 ppm of active ingredient
Experimental: In Vivo Preventive Test on Uromyces appendiculatus (Bean Rust)
(§1) Solvent: 5% by volume of Dimethyl sulfoxide • 10% by volume of Acetone
(§2) Emulsifier: 1 μL of Tween® 80 per mg of active ingredient
The active ingredients are made soluble and homogenized in a mixture of Dimethyl sulfoxide/Acetone/Tween® 80 and then diluted in water to the desired concentration.
The young plants of bean are treated by spraying the active ingredient prepared as described above. Control plants are treated only with an aqueous solution of Acetone/Dimethyl sulfoxide/Tween® 80.
After 24 hours, the plants are contaminated by spraying the leaves with an aqueous suspension of Uromyces appendiculatus spores. The contaminated bean plants are incubated for 24 hours at 20° C. and at 100% relative humidity and then for 10 days at 20° C. and at 70-80% relative humidity.
(§3) The test is evaluated 11 days after the inoculation. 0% means an efficacy which corresponds to that of the control plants while an efficacy of 100% means that no disease is observed.

[1] = log P by HPLC on a reversed-phase column (C 18), EEC Directive 79/831 Annex V.A8; assay type: physicochemical; details: HPLC, reversed-phase column (C 18), 40° C., 0.1% aqueous formic acid and acetonitrile, linear gradient 10% to 90% acetonitrile
Method in brief: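 Reversed-phase C18 HPLC at 40° C, 0.1% aqueous formic acid/acetonitrile gradient from 10% to 90% acetonitrile. log P derived from retention times by linear interpolation between unbranched alkan-2-ones (3–16 carbons) of known log P.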

Puccinia recondita = test: In vivo preventive test on Puccinia recondita (brown rust on wheat); details: for protection: dose of 100 and 10 ppm of active ingredient
Experimental: In Vivo Preventive Test on Puccinia recondita (Brown Rust on Wheat)
as §1, §2
The active ingredients are made soluble and homogenized in a mixture of Dimethyl sulfoxide/Acetone//Tween® 80 and then diluted in water to the desired concentration.
The young plants of wheat are treated by spraying the active ingredient prepared as described above. Control plants are treated only with an aqueous solution of Acetone/Dimethyl sulfoxide/Tween® 80. After 24 hours, the plants are contaminated by spraying the leaves with an aqueous suspension of Puccinia recondita spores. The contaminated wheat plants are incubated for 24 hours at 20° C. and at 100% relative humidity and then for 10 days at 20° C. and at 70-80% relative humidity.
as §3

Compound | Efficacy (Phakopsora pachyrhizi; Table C3, dose 10 ppm) [%] | Efficacy (Uromyces appendiculatus; Table B1, dose 10 ppm) [%] | Efficacy (Uromyces appendiculatus; Table B1, dose 100 ppm) [%] | protection (Uromyces appendiculatus) | logP [1] | Efficacy (Puccinia recondita; Table A1, dose 10 ppm) [%] | Efficacy (Puccinia recondita; Table A1, dose 100 ppm) [%] | protection (Puccinia recondita) | Efficacy (Uromyces appendiculatus; Table B2, dose 10 ppm) [%] | Efficacy (Uromyces appendiculatus; Table B2, dose 100 ppm) [%] | protection (Puccinia recondita; listed as I.8) | protection (Uromyces appendiculatus; listed as I.8) | Efficacy (Phakopsora pachyrhizi; Table C2, dose 10 ppm) [%] | protection (Phakopsora pachyrhizi; dose of 10 ppm of active ingredient)
Cn1nc(C(F)F)c(C(=O)N(Cc2cc(F)ccc2C2(C)CC2)C2CC2)c1F [I.066] | 89 | 100 | 100 | total protection | 3.89 | – | – | – | – | – | – | – | – | –
Cn1nc(C(F)F)c(C(=O)N(Cc2cc(F)ccc2C2(C)CC2)C2CC2)c1Cl [I.067] | – | – | – | at least 90% | 4.04 | 98 | 100 | at least 90% | 93 | 100 | – | – | – | –
Cn1nc(C(F)F)c(C(=O)N(Cc2cc(F)ccc2C2(C)CC2)C2CC2)c1Cl [I.8 from WO-2013/156559, 5-chloro-N-cyclopropyl-3-(difluoromethyl)-N-[5-fluoro-2-(1-methylcyclopropyl)benzyl]-1-methyl-1H-pyrazole-4-carboxamide, reference compound] | – | – | – | – | – | 38 | 94 | – | 14 | 95 | total to average (less than 40%) protection | total to poor (less than 20%) protection | – | –
CCC1(c2ccc(Cl)cc2CN(C(=O)c2c(C(F)F)nn(C)c2F)C2CC2)CC1 [I.110] | – | – | – | – | 4.59 | – | – | – | – | – | – | – | 98 | at least 90%
